Laboratory results taken from ChEMBL document CHEMBL4251572, “Novel aminopyrimidinyl benzimidazoles as potentially antimicrobial agents: Design, synthesis and biological evaluation” (Eur J Med Chem, 2018).
In brackets after ≈: the same amount, converted by molar mass.

Tests used:
Saccharomyces cerevisiae = assay: Antifungal against Saccharomyces cerevisiae after 24 hrs by two fold serial dilution method; assay type: functional
Bacillus = assay: Antibacterial activity against Bacillus proteus ATCC 13315 after 24 hrs by micro broth dilution assay; assay type: functional; details: ATCC 13315, 24 h
Pichia norvegensis = assay: Antifungal against Candida mycoderma after 24 hrs by two fold serial dilution method; assay type: functional
Staphylococcus aureus [1] = assay: Antibacterial activity against methicillin-resistant Staphylococcus aureus N315 after 24 hrs by micro broth dilution assay; assay type: functional; details: N315, 24 h
Cyberlindnera jadinii = assay: Antifungal against Candida utilis after 24 hrs by two fold serial dilution method; assay type: functional; details: Williopsis jadinii
Salmonella typhi = assay: Antibacterial activity against Bacillus typhi after 24 hrs by micro broth dilution assay; assay type: functional, Salmonella enterica subsp. enterica serovar Typhi; details: Salmonella enterica
Staphylococcus aureus [2] = assay: Antibacterial activity against Staphylococcus aureus ATCC 25923 after 24 hrs by micro broth dilution assay; assay type: functional; details: ATCC 25923, 24 h
Escherichia coli [3] = assay: Antibacterial activity against Escherichia coli JM109 after 24 hrs by micro broth dilution assay; assay type: functional; details: JM109, 24 h
Aspergillus flavus = assay: Antifungal against Aspergillus flavus after 24 hrs by two fold serial dilution method; assay type: functional
Micrococcus luteus = assay: Antibacterial activity against Micrococcus luteus ATCC4698 after 24 hrs by micro broth dilution assay; assay type: functional; details: ATCC4698, 24 h
Shigella dysenteriae = assay: Antibacterial activity against Shigella dysenteriae after 24 hrs by micro broth dilution assay; assay type: functional
Candida albicans = assay: Antifungal against Candida albicans ATCC 76615 after 24 hrs by two fold serial dilution method; assay type: functional; details: ATCC 76615, 24 h
Bacillus subtilis = assay: Antibacterial activity against Bacillus subtilis after 24 hrs by micro broth dilution assay; assay type: functional
Escherichia coli [4] = assay: Antibacterial activity against Escherichia coli DH52 after 24 hrs by micro broth dilution assay; assay type: functional; details: DH52, 24 h
Pseudomonas aeruginosa = assay: Antibacterial activity against Pseudomonas aeruginosa after 24 hrs by micro broth dilution assay; assay type: functional

Work on CCCCCCCn1c(C(=O)/C=C/c2ccc(Cl)cc2Cl)nc2ccccc21 yielded an MIC (Saccharomyces cerevisiae) of 512 µg/mL (≈ 1230 µM), an MIC (Bacillus) of 512 µg/mL (≈ 1230 µM) and an MIC (Pichia norvegensis) of 512 µg/mL (≈ 1230 µM). For the same compound, the MIC (Staphylococcus aureus [1]) was 512 µg/mL (≈ 1230 µM), the MIC (Cyberlindnera jadinii) was 512 µg/mL (≈ 1230 µM) and the MIC (Salmonella typhi) was 512 µg/mL (≈ 1230 µM). For the same compound, the MIC (Staphylococcus aureus [2]) was 128 µg/mL (≈ 308 µM), the MIC (Escherichia coli [3]) was 512 µg/mL (≈ 1230 µM) and the MIC (Aspergillus flavus) was 512 µg/mL (≈ 1230 µM). For the same compound, the MIC (Micrococcus luteus) was 512 µg/mL (≈ 1230 µM), the MIC (Shigella dysenteriae) was 256 µg/mL (≈ 616 µM) and the MIC (Candida albicans) was 512 µg/mL (≈ 1230 µM). It also gave an MIC (Bacillus subtilis) of 512 µg/mL (≈ 1230 µM), an MIC (Escherichia coli [4]) of 512 µg/mL (≈ 1230 µM) and an MIC (Pseudomonas aeruginosa) of 512 µg/mL (≈ 1230 µM).
CCCCn1c(C(=O)/C=C/c2ccc(C)cc2)nc2ccccc21 gave an MIC (Saccharomyces cerevisiae) of 4 µg/mL (≈ 12.6 µM), an MIC (Bacillus) of 512 µg/mL (≈ 1610 µM) and an MIC (Pichia norvegensis) of 128 µg/mL (≈ 402 µM). It also gave an MIC (Staphylococcus aureus [1]) of 64 µg/mL (≈ 201 µM), an MIC (Cyberlindnera jadinii) of 512 µg/mL (≈ 1610 µM) and an MIC (Salmonella typhi) of 128 µg/mL (≈ 402 µM). The MIC (Staphylococcus aureus [2]) was 32 µg/mL (≈ 100 µM), the MIC (Escherichia coli [3]) was 128 µg/mL (≈ 402 µM) and the MIC (Aspergillus flavus) was 4 µg/mL (≈ 12.6 µM). For the same compound, the MIC (Micrococcus luteus) was 32 µg/mL (≈ 100 µM), the MIC (Shigella dysenteriae) was 128 µg/mL (≈ 402 µM) and the MIC (Candida albicans) was 16 µg/mL (≈ 50.2 µM). For the same compound, the MIC (Bacillus subtilis) was 128 µg/mL (≈ 402 µM), the MIC (Escherichia coli [4]) was 512 µg/mL (≈ 1610 µM) and the MIC (Pseudomonas aeruginosa) was 16 µg/mL (≈ 50.2 µM).
For CCCCCCCCn1c(C(=O)/C=C/c2ccc(C)cc2)nc2ccccc21, the MIC (Saccharomyces cerevisiae) was 512 µg/mL (≈ 1370 µM), the MIC (Bacillus) was 512 µg/mL (≈ 1370 µM) and the MIC (Pichia norvegensis) was 512 µg/mL (≈ 1370 µM). It also gave an MIC (Staphylococcus aureus [1]) of 512 µg/mL (≈ 1370 µM), an MIC (Cyberlindnera jadinii) of 256 µg/mL (≈ 684 µM) and an MIC (Salmonella typhi) of 512 µg/mL (≈ 1370 µM). For the same compound, the MIC (Staphylococcus aureus [2]) was 512 µg/mL (≈ 1370 µM), the MIC (Escherichia coli [3]) was 512 µg/mL (≈ 1370 µM) and the MIC (Aspergillus flavus) was 512 µg/mL (≈ 1370 µM). The MIC (Micrococcus luteus) was 512 µg/mL (≈ 1370 µM), the MIC (Shigella dysenteriae) was 512 µg/mL (≈ 1370 µM) and the MIC (Candida albicans) was 256 µg/mL (≈ 684 µM). For the same compound, the MIC (Bacillus subtilis) was 512 µg/mL (≈ 1370 µM), the MIC (Escherichia coli [4]) was 512 µg/mL (≈ 1370 µM) and the MIC (Pseudomonas aeruginosa) was 512 µg/mL (≈ 1370 µM).
For CCCCCCCCn1c(-c2cc(-c3ccc(Cl)cc3)nc(N)n2)nc2ccccc21, the MIC (Saccharomyces cerevisiae) was 8 µg/mL (≈ 18.4 µM), the MIC (Bacillus) was 256 µg/mL (≈ 590 µM) and the MIC (Pichia norvegensis) was 8 µg/mL (≈ 18.4 µM). It also gave an MIC (Staphylococcus aureus [1]) of 128 µg/mL (≈ 295 µM), an MIC (Cyberlindnera jadinii) of 8 µg/mL (≈ 18.4 µM) and an MIC (Salmonella typhi) of 4 µg/mL (≈ 9.22 µM). For the same compound, the MIC (Staphylococcus aureus [2]) was 256 µg/mL (≈ 590 µM), the MIC (Escherichia coli [3]) was 512 µg/mL (≈ 1180 µM) and the MIC (Aspergillus flavus) was 256 µg/mL (≈ 590 µM). For the same compound, the MIC (Micrococcus luteus) was 16 µg/mL (≈ 36.9 µM), the MIC (Shigella dysenteriae) was 32 µg/mL (≈ 73.7 µM) and the MIC (Candida albicans) was 8 µg/mL (≈ 18.4 µM). It also gave an MIC (Bacillus subtilis) of 2 µg/mL (≈ 4.61 µM), an MIC (Escherichia coli [4]) of 512 µg/mL (≈ 1180 µM) and an MIC (Pseudomonas aeruginosa) of 32 µg/mL (≈ 73.7 µM).
Compound CCCCn1c(C(=O)/C=C/c2ccc(Cl)cc2Cl)nc2ccccc21 has an MIC (Saccharomyces cerevisiae) of 16 µg/mL (≈ 42.9 µM), an MIC (Bacillus) of 512 µg/mL (≈ 1370 µM) and an MIC (Pichia norvegensis) of 128 µg/mL (≈ 343 µM). For the same compound, the MIC (Staphylococcus aureus [1]) was 8 µg/mL (≈ 21.4 µM), the MIC (Cyberlindnera jadinii) was 512 µg/mL (≈ 1370 µM) and the MIC (Salmonella typhi) was 512 µg/mL (≈ 1370 µM). The MIC (Staphylococcus aureus [2]) was 512 µg/mL (≈ 1370 µM), the MIC (Escherichia coli [3]) was 256 µg/mL (≈ 686 µM) and the MIC (Aspergillus flavus) was 512 µg/mL (≈ 1370 µM). It also gave an MIC (Micrococcus luteus) of 512 µg/mL (≈ 1370 µM), an MIC (Shigella dysenteriae) of 16 µg/mL (≈ 42.9 µM) and an MIC (Candida albicans) of 256 µg/mL (≈ 686 µM). The MIC (Bacillus subtilis) was 64 µg/mL (≈ 171 µM), the MIC (Escherichia coli [4]) was 512 µg/mL (≈ 1370 µM) and the MIC (Pseudomonas aeruginosa) was 512 µg/mL (≈ 1370 µM).
Work on CCCCCCn1c(-c2cc(-c3ccc(C)cc3)nc(N)n2)nc2ccccc21 yielded an MIC (Saccharomyces cerevisiae) of 16 µg/mL (≈ 41.5 µM), an MIC (Bacillus) of 16 µg/mL (≈ 41.5 µM) and an MIC (Pichia norvegensis) of 8 µg/mL (≈ 20.8 µM). It also gave an MIC (Staphylococcus aureus [1]) of 16 µg/mL (≈ 41.5 µM), an MIC (Cyberlindnera jadinii) of 8 µg/mL (≈ 20.8 µM) and an MIC (Salmonella typhi) of 16 µg/mL (≈ 41.5 µM). It also gave an MIC (Staphylococcus aureus [2]) of 128 µg/mL (≈ 332 µM), an MIC (Escherichia coli [3]) of 16 µg/mL (≈ 41.5 µM) and an MIC (Aspergillus flavus) of 512 µg/mL (≈ 1330 µM). It also gave an MIC (Micrococcus luteus) of 16 µg/mL (≈ 41.5 µM), an MIC (Shigella dysenteriae) of 256 µg/mL (≈ 664 µM) and an MIC (Candida albicans) of 32 µg/mL (≈ 83 µM). The MIC (Bacillus subtilis) was 128 µg/mL (≈ 332 µM), the MIC (Escherichia coli [4]) was 32 µg/mL (≈ 83 µM) and the MIC (Pseudomonas aeruginosa) was 64 µg/mL (≈ 166 µM).
For CCCCCCCn1c(C(=O)/C=C/c2ccc(F)cc2)nc2ccccc21, the MIC (Saccharomyces cerevisiae) was 512 µg/mL (≈ 1400 µM), the MIC (Bacillus) was 512 µg/mL (≈ 1400 µM) and the MIC (Pichia norvegensis) was 512 µg/mL (≈ 1400 µM). For the same compound, the MIC (Staphylococcus aureus [1]) was 64 µg/mL (≈ 176 µM), the MIC (Cyberlindnera jadinii) was > 512 µg/mL and the MIC (Salmonella typhi) was 512 µg/mL (≈ 1400 µM). It also gave an MIC (Staphylococcus aureus [2]) of 512 µg/mL (≈ 1400 µM), an MIC (Escherichia coli [3]) of 128 µg/mL (≈ 351 µM) and an MIC (Aspergillus flavus) of 512 µg/mL (≈ 1400 µM). It also gave an MIC (Micrococcus luteus) of 512 µg/mL (≈ 1400 µM), an MIC (Shigella dysenteriae) of 512 µg/mL (≈ 1400 µM) and an MIC (Candida albicans) of 512 µg/mL (≈ 1400 µM). It also gave an MIC (Bacillus subtilis) of 512 µg/mL (≈ 1400 µM), an MIC (Escherichia coli [4]) of 512 µg/mL (≈ 1400 µM) and an MIC (Pseudomonas aeruginosa) of 512 µg/mL (≈ 1400 µM).
Compound OC(Cn1cncn1)(Cn1cncn1)c1ccc(F)cc1F [FLUCONAZOLE] has an MIC (Saccharomyces cerevisiae) of 8 µg/mL (≈ 26.1 µM), an MIC (Pichia norvegensis) of 4 µg/mL (≈ 13.1 µM) and an MIC (Cyberlindnera jadinii) of 16 µg/mL (≈ 52.2 µM). For the same compound, the MIC (Aspergillus flavus) was 256 µg/mL (≈ 836 µM) and the MIC (Candida albicans) was 1 µg/mL (≈ 3.27 µM).
CCCCCCn1c(C(=O)/C=C/c2ccc(Cl)cc2Cl)nc2ccccc21 gave an MIC (Saccharomyces cerevisiae) of 512 µg/mL (≈ 1280 µM), an MIC (Bacillus) of 512 µg/mL (≈ 1280 µM) and an MIC (Pichia norvegensis) of 512 µg/mL (≈ 1280 µM). For the same compound, the MIC (Staphylococcus aureus [1]) was 256 µg/mL (≈ 638 µM), the MIC (Cyberlindnera jadinii) was 512 µg/mL (≈ 1280 µM) and the MIC (Salmonella typhi) was 512 µg/mL (≈ 1280 µM). The MIC (Staphylococcus aureus [2]) was 32 µg/mL (≈ 79.7 µM), the MIC (Escherichia coli [3]) was 512 µg/mL (≈ 1280 µM) and the MIC (Aspergillus flavus) was 512 µg/mL (≈ 1280 µM). For the same compound, the MIC (Micrococcus luteus) was 512 µg/mL (≈ 1280 µM), the MIC (Shigella dysenteriae) was 512 µg/mL (≈ 1280 µM) and the MIC (Candida albicans) was 512 µg/mL (≈ 1280 µM). The MIC (Bacillus subtilis) was 512 µg/mL (≈ 1280 µM), the MIC (Escherichia coli [4]) was 512 µg/mL (≈ 1280 µM) and the MIC (Pseudomonas aeruginosa) was 512 µg/mL (≈ 1280 µM).
